Laboratory results: publication PMC6017136, “Efficient Synthesis and Bioactivity of Novel Triazole Derivatives” (Molecules : A Journal of Synthetic Chemistry and Natural …, 2018)

Tests used:
Assay in all cases: microbe, parasite or virus in culture
[1] = tested on: Phytophthora capsici P. CapasiciLeonian; conditions: read-out: Inhibition Ratio (%) / P. CapasiciLeonian
Botrytis cinerea Pers = conditions: read-out: Inhibition Ratio (%) / B. cinerea
[2] = tested on: Fusarium oxysporum Schl. F.sp. vasinfectum (Atk.) Snyd. & Hans.; conditions: read-out: Inhibition Ratio (%) / Fusarium oxysporum Schl. F.sp. vasinfectum (Atk.) Snyd. & Hans.
Pyricularia oryzae Cav. = conditions: read-out: Inhibition Ratio (%) / Pyricularia oryzae Cav.
[3] = tested on: Sclerotinia sclerotiorum (Lib.) de Bary; conditions: read-out: Inhibition Ratio (%) / S. sclerotiorum

| Structure (SMILES) | inhibition at 50 µg/mL [1] | inhibition at 50 µg/mL (Botrytis cinerea Pers) | inhibition at 50 µg/mL [2] | inhibition at 50 µg/mL (Pyricularia oryzae Cav.) | inhibition at 50 µg/mL [3] |
| --- | --- | --- | --- | --- | --- |
| CO[C@@H]1[C@H]2OC(C)(C)O[C@H]2O[C@@H]1Cn1cc(-c2ccc(Cl)cc2)nn1 [1-f, Furan glucosyl-1,2,3-triazole (1-f)] | 81.2% | 71% | 89% | 82.4% | 85.1% |
| CO[C@H]1[C@@H](Cn2cc(-c3ccccc3)nn2)OC(O)[C@@H]1O (stereo partly drawn) [3-a, Furan glucosyl-1,2,3-triazole (3-a)] | 40.1% | 33.3% | 58.7% | 61.2% | 30.3% |
| CO[C@H]1[C@@H](Cn2cc(-c3cccc(C)c3)nn2)OC(O)[C@@H]1O (stereo partly drawn) [3-b, Furan glucosyl-1,2,3-triazole (3-b)] | 35.6% | 15.3% | 34.1% | 35.4% | 28.4% |
| COc1ccc(-c2cn(C[C@H]3OC(O)[C@H](O)[C@H]3OC)nn2)cc1 (stereo partly drawn) [3-c, Furan glucosyl-1,2,3-triazole (3-c)] | 38.9% | 10.4% | 29.3% | 30.1% | 31.5% |
| CO[C@H]1[C@@H](Cn2cc(-c3ccc(F)cc3)nn2)OC(O)[C@@H]1O (stereo partly drawn) [3-d, Furan glucosyl-1,2,3-triazole (3-d)] | 50.2% | 19.1% | 40.2% | 47.8% | 38.4% |
| CO[C@H]1[C@@H](Cn2cc(-c3ccc([N+](=O)[O-])cc3)nn2)OC(O)[C@@H]1O (stereo partly drawn) [3-e, Furan glucosyl-1,2,3-triazole (3-e)] | 44.7% | 17.1% | 25.6% | 23.1% | 39.6% |
| CO[C@H]1[C@@H](Cn2cc(-c3ccc(Cl)cc3)nn2)OC(O)[C@@H]1O (stereo partly drawn) [3-f, Furan glucosyl-1,2,3-triazole (3-f)] | 46.8% | 20.5% | 57.6% | 50.7% | 25.3% |
| CO[C@H]1[C@@H](Cn2cc(C(C)O)nn2)OC(O)[C@@H]1O (stereo partly drawn) [3-g, Furan glucosyl-1,2,3-triazole (3-g)] | 23.1% | 11.5% | 23.4% | 21.5% | 13.7% |
| OC1O[C@H](Cn2cc(-c3ccccc3)nn2)[C@H](OCc2ccccc2)[C@H]1O (stereo partly drawn) [4-a, Furan glucosyl-1,2,3-triazole (4-a)] | 21.2% | 19.5% | 35.4% | 37.8% | 26.4% |
| Cc1cccc(-c2cn(C[C@H]3OC(O)[C@H](O)[C@H]3OCc3ccccc3)nn2)c1 (stereo partly drawn) [4-b, Furan glucosyl-1,2,3-triazole (4-b)] | 29.6% | 10.9% | 27.1% | 27.8% | 29.9% |
| OC1O[C@H](Cn2cc(-c3ccc(F)cc3)nn2)[C@H](OCc2ccccc2)[C@H]1O (stereo partly drawn) [4-d, Furan glucosyl-1,2,3-triazole (4-d)] | 35.4% | 20.3% | 37.8% | 35.6% | 34.7% |
| OC1O[C@H](Cn2cc(-c3ccc(Cl)cc3)nn2)[C@H](OCc2ccccc2)[C@H]1O (stereo partly drawn) [4-f, Furan glucosyl-1,2,3-triazole (4-f)] | 38.7% | 22.2% | 43.1% | 40.2% | 31.7% |
| CC(O)c1cn(C[C@H]2OC(O)[C@H](O)[C@H]2OCc2ccccc2)nn1 (stereo partly drawn) [4-g, Furan glucosyl-1,2,3-triazole (4-g)] | 24.5% | 12.1% | 20.9% | 21.3% | 13.5% |
| CO[C@H]1C(Cn2cc(-c3ccccc3)nn2)OC(OC(C)=O)[C@@H]1OC(C)=O (stereo partly drawn) [5-a, Furan glucosyl-1,2,3-triazole (5-a)] | 42.3% | 36.1% | 61.3% | 62.7% | 57.6% |
| COc1ccc(-c2cn(C[C@H]3OC(OC(C)=O)[C@H](OC(C)=O)[C@H]3OC)nn2)cc1 (stereo partly drawn) [5-c, Furan glucosyl-1,2,3-triazole (5-c)] | 47.2% | 19.2% | 30% | 40.8% | 43.1% |
| CO[C@H]1[C@@H](Cn2cc(-c3ccc(F)cc3)nn2)OC(OC(C)=O)[C@@H]1OC(C)=O (stereo partly drawn) [5-d, Furan glucosyl-1,2,3-triazole (5-d)] | 65.2% | 23.2% | 70.9% | 69.2% | 67.6% |
| CO[C@H]1[C@@H](Cn2cc(-c3ccc([N+](=O)[O-])cc3)nn2)OC(OC(C)=O)[C@@H]1OC(C)=O (stereo partly drawn) [5-e, Furan glucosyl-1,2,3-triazole (5-e)] | 67.7% | 22.1% | 69.5% | 56.9% | 64.9% |
| CO[C@H]1[C@@H](Cn2cc(-c3ccc(Cl)cc3)nn2)OC(OC(C)=O)[C@@H]1OC(C)=O (stereo partly drawn) [5-f, Furan glucosyl-1,2,3-triazole (5-f)] | 68.2% | 27.6% | 71.5% | 60.5% | 56.1% |
| CC(=O)OC1O[C@H](Cn2cc(-c3ccc(F)cc3)nn2)[C@H](OCc2ccccc2)[C@H]1OC(C)=O (stereo partly drawn) [6-d, Furan glucosyl-1,2,3-triazole (6-d)] | 57.1% | 26.7% | 58.6% | 50.2% | 64.7% |
| CC(=O)OC1O[C@H](Cn2cc(-c3ccc([N+](=O)[O-])cc3)nn2)[C@H](OCc2ccccc2)[C@H]1OC(C)=O (stereo partly drawn) [6-e, Furan glucosyl-1,2,3-triazole (6-e)] | 50.3% | 27.4% | 59.3% | 48.9% | 56.3% |
| N#Cc1c(Cl)c(Cl)c(Cl)c(C#N)c1Cl [Chlorothalonil] | 94.2% | 98% | 94.2% | 89.2% | 95.5% |
